Results published in paper PMC12724231, “APC24-7, a covalent combination of boronic acid and chelator moieties, restores β-lactam efficiency against metallo-β-lactamase-producers” (mSphere, 2025).

How the values were obtained:
[1] = system: T1, Escherichia coli BAA-2469™; assay: microbe, parasite or virus in culture; design: species or system clinical isolates of E. coli and K. pneumoniae; details: Escherichia coli, BAA2469; inhibitor alone; read-out: MIC APC24-7
T1 construct: ATCC BAA-2469
Protocol: (§1) MICs for clinical isolates were determined in a broth microdilution assay according to Clinical and Laboratory Standards Institute (CLSI) ([75]), using cation-adjusted Mueller-Hinton broth (Thermo Fisher Scientific, Lenexa, USA). The direct colony suspension method was utilized by preparing an inoculum of an OD600 0.17, except for E. coli #36 in which 0.10 was used, which equated to a concentration of 10^8 colony-forming units (CFU) per mL. Inoculum controls were included for all assays ([76]). […] Subsequently, we aimed to identify a potent β-lactam/APC24-7 combination capable of reversing β-lactamase-mediated BL resistance in our clinical isolates. All 16 isolates were exposed to increasing concentrations of meropenem (carbapenem), aztreonam (monobactam), ceftazidime and cefepime (cephalosporins), as well as amoxicillin (penicillin), both in the absence and presence of 57 µM (32 mg/L) of APC24-7. The effectiveness of these combinations was assessed based on their ability to resensitize the clinical isolates according to the clinical breakpoints (EUCAST clinical breakpoint table version 15.0, www.eucast.org).

[2] = system: T2, Klebsiella pneumoniae BAA-2146™; assay: microbe, parasite or virus in culture; design: species or system clinical isolates of E. coli and K. pneumoniae; details: Klebsiella pneumoniae, BAA2146; inhibitor alone; read-out: MIC APC24-7
T2 construct: ATCC BAA-2146
Protocol: as §1

[3] = system: T3, Klebsiella pneumoniae BAA1705™; assay: microbe, parasite or virus in culture; design: species or system clinical isolates of E. coli and K. pneumoniae; details: Klebsiella pneumoniae, BAA1705; inhibitor alone; read-out: MIC APC24-7
T3 construct: ATCC BAA-1705
Protocol: as §1

[4] = system: T4, Klebsiella pneumoniae K46-62; assay: microbe, parasite or virus in culture; design: species or system clinical isolates of E. coli and K. pneumoniae; details: Klebsiella pneumoniae, K4662; inhibitor alone; read-out: MIC APC24-7
T4 construct: K46-62
Protocol: as §1

Escherichia coli MP21-05 = system: T5, Escherichia coli MP21-05; assay: microbe, parasite or virus in culture; design: species or system E. coli E. cloni 10G; Microdilution MIC of inhibitor alone in LB, OD600 read-out, E. coli 10G without or with empty vector; details: MP2105, inhibitor alone, read-out: MIC APC24-7
T5 construct: MP21-05
Protocol: (§2) Susceptibility testing of isogenic E. coli E. cloni 10G (Table 2) was determined by both the microdilution assay. […] Overnight cultures were prepared in LB supplemented with 25 mg/L chloramphenicol at 37°C under shaking at 700 rpm. The overnight cultures were diluted in PBS to 10^6 CFU/ mL, followed by inoculation in LB to ~10^5 CFU in 384-well plates (VWR, Radnor, PA, USA). Plates were prepared with twofold increasing concentrations of meropenem and cefepime ([…], respectively) to a total inoculated volume of 100 µL Plates were incubated at 37°C without shaking for 19–21 h. OD600 was determined in a SpectraMax Plus plate reader (Molecular Devices).

Escherichia coli MP32-64 = system: T6, Escherichia coli MP32-64; assay: microbe, parasite or virus in culture; design: species or system E. coli E. cloni 10G; Microdilution MIC of inhibitor alone in LB, OD600 read-out, E. coli 10G without or with empty vector; details: MP3264, inhibitor alone, read-out: MIC APC24-7
T6 construct: MP32-64
Protocol: as §2

NDM-1 = target: T7, NDM-1 (Klebsiella pneumoniae, UniProt C7C422); assay: biochemical; design: Residual beta-lactamase activity; meropenem (NDM-1, 300 nm) or nitrocefin (others, 480 nm) hydrolysis, 1 uM Zn2+ (OXA-48: bicarbonate)
T7 construct: gene blaNDM-1
Protocol: (§3) IC50 determination with purified enzymes was performed as previously described ([40]). In brief, enzymes were diluted in 50 mM HEPES, pH 7.5, supplemented with 1 µM Zn^2+. For OXA-48, 50 mM HEPES, pH 7.5, was supplemented with 50 mM sodium bicarbonate buffer solution (Sigma Aldrich). Enzymes and inhibitors were mixed at various inhibitor concentrations, and absorbance was measured by spectrophotometry (Table S5). For NDM-1 and MBP-NDM-9, the hydrolysis of meropenem (24 µM) was monitored at 300 nm using UV- transparent 96-well plates (Corning, Kennebunk, ME). For all other enzymes, nitrocefin (24 µM, Millipore Sigma, USA) hydrolysis was monitored at 480 nm. The residual enzyme activity at various inhibitor concentrations was calculated in comparison to the initial reaction velocity of the inhibitor-free […] control. Dose-response curves were fitted using nonlinear regression in GraphPad Prism v. 10.5.0. All tests were performed at least in duplicates at 25°C.

OXA-48 = OXA-48 (Klebsiella pneumoniae, UniProt Q6XEC0); assay: biochemical; design: Residual beta-lactamase activity; meropenem (NDM-1, 300 nm) or nitrocefin (others, 480 nm) hydrolysis, 1 uM Zn2+ (OXA-48: bicarbonate)
Protocol: as §3

VIM-7 = VIM-7 (Pseudomonas aeruginosa, UniProt Q840P9); assay: biochemical; design: Residual beta-lactamase activity; meropenem (NDM-1, 300 nm) or nitrocefin (others, 480 nm) hydrolysis, 1 uM Zn2+ (OXA-48: bicarbonate)
Protocol: as §3

VIM-2 = target: T8, VIM-2 (Pseudomonas aeruginosa, UniProt Q9K2N0); design: Residual beta-lactamase activity; meropenem (NDM-1, 300 nm) or nitrocefin (others, 480 nm) hydrolysis, 1 uM Zn2+ (OXA-48: bicarbonate); details: inhibitor
T8 construct: gene blaVIM-2
Protocol: as §3

T7 sequence (C7C422 29-270 limits assumed): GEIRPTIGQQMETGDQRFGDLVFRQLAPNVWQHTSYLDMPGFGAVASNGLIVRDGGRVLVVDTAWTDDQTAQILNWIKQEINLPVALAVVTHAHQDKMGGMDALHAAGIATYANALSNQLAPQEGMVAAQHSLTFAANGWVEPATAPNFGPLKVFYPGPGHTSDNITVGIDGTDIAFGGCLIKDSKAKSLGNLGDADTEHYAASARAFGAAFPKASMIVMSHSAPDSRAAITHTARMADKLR
Sequence of VIM-7 (Q840P9 18-265): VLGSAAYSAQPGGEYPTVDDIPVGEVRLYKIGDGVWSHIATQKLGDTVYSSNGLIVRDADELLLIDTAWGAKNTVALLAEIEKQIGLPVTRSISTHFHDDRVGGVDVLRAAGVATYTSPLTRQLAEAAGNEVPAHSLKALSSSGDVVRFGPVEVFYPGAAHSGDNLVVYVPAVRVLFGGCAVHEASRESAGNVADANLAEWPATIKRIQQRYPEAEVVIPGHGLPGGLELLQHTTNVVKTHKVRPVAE
Sequence of OXA-48 (Q6XEC0 23-265 limits assumed): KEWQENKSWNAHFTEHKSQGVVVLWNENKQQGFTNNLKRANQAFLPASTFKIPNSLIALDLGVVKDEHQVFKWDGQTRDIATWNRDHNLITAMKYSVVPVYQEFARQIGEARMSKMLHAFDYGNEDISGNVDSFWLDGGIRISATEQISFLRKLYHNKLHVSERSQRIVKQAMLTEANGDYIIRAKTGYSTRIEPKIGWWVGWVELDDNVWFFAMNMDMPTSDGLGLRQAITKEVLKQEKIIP

SMILES: O=C(N[C@H]1Cc2cccc(C(=O)O)c2OB1O)c1ccc(CNCCN(Cc2ccccn2)Cc2ccccn2)cc1 [APC24-7]
- MIC [1]: > 906 µM
- MIC [2]: > 906 µM
- MIC [3]: > 906 µM
- MIC [4]: > 906 µM
- MIC (Escherichia coli MP21-05): > 906 µM
- MIC (Escherichia coli MP32-64): > 906 µM
- IC50 (NDM-1): 140 nM
- IC50 (OXA-48): 420 nM
- IC50 (VIM-7): 1080 nM
- IC50 (VIM-2): 110 nM
